Calls of active or inactive are those of the source. For most assays here, no stated cut-off is given here; in the data, actives have a measured IC50 and inactives only a lower limit.
Columns and labels:
[1] = molecular target: Peroxisome proliferator-activated receptor gamma/Nuclear receptor coactivator 1 (Homo sapiens, UniProt P37231); assay: (§1) TR-FRET dose response biochemical High Throughput Screening assay for agonists of the steroid receptor coactivator 1 (SRC-1) recruitment by the peroxisome proliferator-activated receptor gamma (PPAR gamma): non-selective agonists. [Related pubchem assays (depositor defined):AID1300, AID1808, AID504735, AID631]; type: protein assay
[2] = molecular target: Peroxisome proliferator-activated receptor gamma/Nuclear receptor coactivator 3 (Homo sapiens, UniProt P37231); assay: as §1, with “3 (SRC-3)” for “1 (SRC-1)”, “assays: 1301 (Confirmation screen.), 1048 (Primary screen.)]” for “assays (depositor defined):AID1300, AID1808, AID504735, AID631]”; type: functional
[3] = molecular target: Peroxisome proliferator-activated receptor gamma/Nuclear receptor coactivator 2 (Homo sapiens, UniProt P37231); assay: TR-FRET dose response biochemical High Throughput Screening assay for agonists of the steroid receptor coactivator 2 (SRC-2) recruitment by the peroxisome proliferator-activated receptor gamma (PPAR gamma): non-selective agonists. [Related pubchem assays: 1297, 1032 ]; type: functional
[4] = molecular target: T1, Ubiquitin-conjugating enzyme E2 N (Homo sapiens, UniProt P61088); type: functional;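 further: Dose-response confirmation in a TR-FRET assay detecting UBC13-driven polyubiquitin chain formation, inhibition measured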
T1 sequence (P61088 whole entry): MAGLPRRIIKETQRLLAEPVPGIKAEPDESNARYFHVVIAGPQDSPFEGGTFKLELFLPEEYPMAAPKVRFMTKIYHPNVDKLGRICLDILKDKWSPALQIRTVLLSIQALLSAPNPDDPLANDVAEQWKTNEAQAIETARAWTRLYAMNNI

[5] = molecular target: Intestinal-type alkaline phosphatase (Mus musculus, UniProt P24822); assay: PubChem AID 488785; type: functional
Nonstructural protein 1 = Nonstructural protein 1 (Influenza A virus, UniProt Q194T2); type: functional, Influenza A virus (A/California/07/2009(H1N1))
[6] = molecular target: T2, Alkaline phosphatase, tissue-nonspecific isozyme (Homo sapiens, UniProt P05186); assay: TNAP enzyme inhibition by screening hits, dose response, selectivity assay for mouse IAP inhibitor project, biochemical, human TNAP, uHTS hits (AID 488906); type: functional
T2 sequence (P05186 whole entry): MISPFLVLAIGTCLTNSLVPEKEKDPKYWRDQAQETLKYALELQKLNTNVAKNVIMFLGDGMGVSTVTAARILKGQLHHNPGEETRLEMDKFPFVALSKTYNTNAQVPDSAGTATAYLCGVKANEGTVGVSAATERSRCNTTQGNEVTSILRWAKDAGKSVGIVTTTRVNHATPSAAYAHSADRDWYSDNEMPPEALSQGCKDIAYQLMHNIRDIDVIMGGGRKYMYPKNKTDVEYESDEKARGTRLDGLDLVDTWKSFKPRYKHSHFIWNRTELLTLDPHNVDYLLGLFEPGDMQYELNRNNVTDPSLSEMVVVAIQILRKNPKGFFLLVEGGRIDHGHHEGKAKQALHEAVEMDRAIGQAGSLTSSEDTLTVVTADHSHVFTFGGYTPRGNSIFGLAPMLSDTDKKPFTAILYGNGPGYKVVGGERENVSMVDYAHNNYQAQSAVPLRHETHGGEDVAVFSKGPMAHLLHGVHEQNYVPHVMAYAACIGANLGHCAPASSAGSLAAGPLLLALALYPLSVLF

[7] = molecular target: Intestinal-type alkaline phosphatase (Homo sapiens, UniProt P09923); assay: inhibition of human intestinal alkaline phosphatase – biochemical, dose response (AID 488876); type: functional
SUMO E1/E2 = SUMO E1/E2 (Homo sapiens, UniProt P63279+Q9UBE0+Q9UBT2); assay: SAR analysis of SUMOylation using HTRF in an in-Vitro dose response assay. [Related pubchem assays (depositor defined):AID2006, AID2011, AID2018, AID2069, AID2658]; type: functional
[8] = molecular target: T3, Voltage-gated N-type calcium channel alpha-1B subunit/Amyloid beta A4 precursor protein-binding family A member 1 (Homo sapiens, UniProt Q00975+Q02410); assay: disruptors of Mint-PDZ/N-type channel peptide interaction – biochemical, HTRF, set 2, SAR follow-up (AID 434980); type: functional
[9] = molecular target: T3, Voltage-gated N-type calcium channel alpha-1B subunit/Amyloid beta A4 precursor protein-binding family A member 1; assay: disruptors of Mint-PDZ/N-type channel peptide interaction – biochemical, HTRF, SAR follow-up (AID 2489); type: functional

T3 sequence (Q00975 whole entry): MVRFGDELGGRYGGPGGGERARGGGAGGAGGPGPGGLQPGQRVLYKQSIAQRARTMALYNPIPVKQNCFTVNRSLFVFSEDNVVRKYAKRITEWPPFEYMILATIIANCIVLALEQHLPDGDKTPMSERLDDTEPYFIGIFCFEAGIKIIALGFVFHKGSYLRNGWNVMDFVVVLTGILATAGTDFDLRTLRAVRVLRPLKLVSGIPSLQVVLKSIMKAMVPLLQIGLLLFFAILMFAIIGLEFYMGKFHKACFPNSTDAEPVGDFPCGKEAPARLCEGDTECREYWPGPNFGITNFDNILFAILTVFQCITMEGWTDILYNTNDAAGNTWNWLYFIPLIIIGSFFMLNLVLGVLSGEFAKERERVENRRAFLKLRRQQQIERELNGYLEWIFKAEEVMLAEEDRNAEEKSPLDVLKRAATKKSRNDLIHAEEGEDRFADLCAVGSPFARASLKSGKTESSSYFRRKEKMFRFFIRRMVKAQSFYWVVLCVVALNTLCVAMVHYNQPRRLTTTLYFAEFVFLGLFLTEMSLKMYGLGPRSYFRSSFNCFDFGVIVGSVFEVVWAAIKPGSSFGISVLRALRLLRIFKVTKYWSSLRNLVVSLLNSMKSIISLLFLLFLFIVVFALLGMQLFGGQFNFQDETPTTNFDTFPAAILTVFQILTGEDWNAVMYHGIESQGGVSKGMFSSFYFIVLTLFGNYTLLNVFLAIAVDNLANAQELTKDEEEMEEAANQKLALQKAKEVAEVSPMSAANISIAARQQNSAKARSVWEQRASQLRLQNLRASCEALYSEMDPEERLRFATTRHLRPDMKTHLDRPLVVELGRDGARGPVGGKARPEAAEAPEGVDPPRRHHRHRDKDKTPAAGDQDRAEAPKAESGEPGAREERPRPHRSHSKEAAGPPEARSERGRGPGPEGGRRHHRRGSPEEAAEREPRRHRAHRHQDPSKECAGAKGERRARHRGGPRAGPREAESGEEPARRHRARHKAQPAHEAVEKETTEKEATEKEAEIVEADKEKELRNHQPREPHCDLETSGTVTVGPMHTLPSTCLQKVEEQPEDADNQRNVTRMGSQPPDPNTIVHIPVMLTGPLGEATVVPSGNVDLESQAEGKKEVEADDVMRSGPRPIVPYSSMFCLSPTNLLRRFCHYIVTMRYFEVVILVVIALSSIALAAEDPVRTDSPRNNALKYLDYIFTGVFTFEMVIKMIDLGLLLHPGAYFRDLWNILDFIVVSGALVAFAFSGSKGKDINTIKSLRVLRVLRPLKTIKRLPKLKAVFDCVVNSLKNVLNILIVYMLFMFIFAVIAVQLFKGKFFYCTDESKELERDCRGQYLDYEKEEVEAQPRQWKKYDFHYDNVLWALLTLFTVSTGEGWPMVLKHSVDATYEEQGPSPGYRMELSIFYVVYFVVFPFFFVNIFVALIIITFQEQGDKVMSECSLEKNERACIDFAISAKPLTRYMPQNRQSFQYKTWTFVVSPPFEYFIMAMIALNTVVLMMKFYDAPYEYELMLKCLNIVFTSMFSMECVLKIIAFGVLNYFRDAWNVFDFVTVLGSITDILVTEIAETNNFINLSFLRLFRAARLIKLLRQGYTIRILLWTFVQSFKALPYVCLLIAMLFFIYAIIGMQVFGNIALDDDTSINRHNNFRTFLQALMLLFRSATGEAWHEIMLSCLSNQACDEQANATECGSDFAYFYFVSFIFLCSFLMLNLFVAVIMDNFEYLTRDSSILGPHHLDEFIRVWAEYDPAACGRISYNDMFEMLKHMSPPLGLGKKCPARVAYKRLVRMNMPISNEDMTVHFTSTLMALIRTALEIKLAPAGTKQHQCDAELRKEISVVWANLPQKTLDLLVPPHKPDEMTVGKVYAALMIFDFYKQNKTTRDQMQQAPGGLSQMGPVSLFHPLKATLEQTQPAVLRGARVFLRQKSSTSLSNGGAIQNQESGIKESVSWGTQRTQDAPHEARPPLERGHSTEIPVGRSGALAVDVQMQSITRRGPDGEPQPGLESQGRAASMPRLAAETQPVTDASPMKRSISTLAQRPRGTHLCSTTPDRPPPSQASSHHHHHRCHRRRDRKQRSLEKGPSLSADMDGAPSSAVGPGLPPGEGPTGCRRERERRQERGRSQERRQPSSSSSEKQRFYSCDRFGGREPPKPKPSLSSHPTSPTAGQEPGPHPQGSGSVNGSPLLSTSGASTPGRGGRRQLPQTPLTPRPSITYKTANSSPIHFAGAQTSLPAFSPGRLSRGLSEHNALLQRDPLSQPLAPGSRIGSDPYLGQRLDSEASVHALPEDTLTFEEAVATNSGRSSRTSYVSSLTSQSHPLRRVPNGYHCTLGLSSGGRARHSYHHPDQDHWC
T3 sequence (Q02410 whole entry): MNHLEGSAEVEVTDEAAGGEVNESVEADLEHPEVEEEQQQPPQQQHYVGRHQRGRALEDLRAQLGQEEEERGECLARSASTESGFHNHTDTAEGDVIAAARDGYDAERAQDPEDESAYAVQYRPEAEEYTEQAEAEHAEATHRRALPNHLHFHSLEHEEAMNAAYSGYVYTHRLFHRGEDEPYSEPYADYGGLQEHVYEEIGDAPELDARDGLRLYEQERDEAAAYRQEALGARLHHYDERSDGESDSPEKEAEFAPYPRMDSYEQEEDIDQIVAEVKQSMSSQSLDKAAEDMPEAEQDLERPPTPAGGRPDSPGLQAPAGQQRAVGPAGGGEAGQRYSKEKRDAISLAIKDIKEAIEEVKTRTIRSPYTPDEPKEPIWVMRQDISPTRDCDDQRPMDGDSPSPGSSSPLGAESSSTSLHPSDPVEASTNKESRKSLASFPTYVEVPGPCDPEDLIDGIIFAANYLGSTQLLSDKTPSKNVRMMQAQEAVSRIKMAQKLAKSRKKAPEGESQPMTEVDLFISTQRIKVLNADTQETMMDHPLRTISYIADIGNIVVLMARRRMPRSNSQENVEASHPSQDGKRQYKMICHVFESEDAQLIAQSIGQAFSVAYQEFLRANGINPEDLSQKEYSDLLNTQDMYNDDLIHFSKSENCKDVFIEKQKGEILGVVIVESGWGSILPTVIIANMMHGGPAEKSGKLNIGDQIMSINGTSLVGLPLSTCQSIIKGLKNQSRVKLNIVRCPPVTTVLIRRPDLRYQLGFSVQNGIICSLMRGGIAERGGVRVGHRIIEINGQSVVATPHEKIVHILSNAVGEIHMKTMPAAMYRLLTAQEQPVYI
Sequence of Intestinal-type alkaline phosphatase (Homo sapiens, UniProt P09923) (P09923 whole entry): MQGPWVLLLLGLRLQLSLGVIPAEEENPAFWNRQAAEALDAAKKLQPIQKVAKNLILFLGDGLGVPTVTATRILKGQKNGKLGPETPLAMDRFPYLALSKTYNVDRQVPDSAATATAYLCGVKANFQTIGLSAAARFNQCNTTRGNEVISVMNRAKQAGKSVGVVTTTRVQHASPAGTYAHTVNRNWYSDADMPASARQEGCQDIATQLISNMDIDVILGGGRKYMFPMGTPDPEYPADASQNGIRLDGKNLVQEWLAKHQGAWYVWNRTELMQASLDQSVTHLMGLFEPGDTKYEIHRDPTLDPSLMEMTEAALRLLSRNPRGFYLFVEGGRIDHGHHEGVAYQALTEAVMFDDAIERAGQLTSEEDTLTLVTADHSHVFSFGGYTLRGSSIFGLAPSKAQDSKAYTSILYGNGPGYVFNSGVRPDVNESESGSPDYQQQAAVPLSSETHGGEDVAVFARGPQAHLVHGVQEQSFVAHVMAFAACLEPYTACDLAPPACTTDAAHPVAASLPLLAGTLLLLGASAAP
Sequence of Intestinal-type alkaline phosphatase (Mus musculus, UniProt P24822) (P24822 whole entry): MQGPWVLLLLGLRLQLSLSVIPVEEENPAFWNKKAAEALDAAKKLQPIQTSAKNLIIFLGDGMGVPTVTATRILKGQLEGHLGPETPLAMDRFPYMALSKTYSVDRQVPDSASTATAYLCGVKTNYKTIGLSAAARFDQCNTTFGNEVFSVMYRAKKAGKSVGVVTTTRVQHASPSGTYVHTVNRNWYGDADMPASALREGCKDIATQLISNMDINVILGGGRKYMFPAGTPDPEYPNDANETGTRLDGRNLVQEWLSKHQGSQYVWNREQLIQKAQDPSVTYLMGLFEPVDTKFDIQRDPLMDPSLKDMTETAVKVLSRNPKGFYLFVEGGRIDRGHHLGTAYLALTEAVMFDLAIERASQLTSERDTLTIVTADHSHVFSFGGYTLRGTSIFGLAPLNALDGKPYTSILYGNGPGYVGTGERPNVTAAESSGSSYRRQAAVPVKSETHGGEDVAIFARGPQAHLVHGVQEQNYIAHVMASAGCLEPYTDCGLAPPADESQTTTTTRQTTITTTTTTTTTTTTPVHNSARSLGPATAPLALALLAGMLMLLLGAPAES
Sequence of Nonstructural protein 1 (Q194T2 whole entry): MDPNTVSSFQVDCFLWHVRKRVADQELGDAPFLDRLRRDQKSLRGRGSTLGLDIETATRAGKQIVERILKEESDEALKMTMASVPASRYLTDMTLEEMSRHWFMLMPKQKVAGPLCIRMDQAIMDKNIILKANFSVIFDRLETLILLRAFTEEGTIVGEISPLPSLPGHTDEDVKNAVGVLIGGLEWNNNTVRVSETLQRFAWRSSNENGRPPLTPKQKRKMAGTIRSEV

With `COc1ccc(-c2c3c(nc4sc(C(=O)Nc5ccccc5)c(N)c24)CCC3)cc1` the EC50 [1] was > 79.4 µM (inactive), the EC50 [2] was > 79.4 µM (not active) and the EC50 [3] was > 79.4 µM (not active). The IC50 [4] was > 20 µM (inactive).
In the case of `Cc1cc(C)cc(NC(=S)NC2CC3CCCC(C2)N3Cc2cccs2)c1` (centres undefined), the IC50 [5] is reported as 2.17 µM (active), the IC50 (Nonstructural protein 1) is reported as > 100 µM (active) and the IC50 [6] is reported as 12.9 µM (active). The IC50 [7] was 4.06 µM (active).
`COc1cccc(NC(=O)CN(C)S(=O)(=O)c2ccc3nc(O)oc3c2)c1` was tested, and the IC50 [5] was 4.03 µM (active), the IC50 [6] was > 100 µM (inactive) and the IC50 [7] was > 100 µM (inactive).
With `COc1ccccc1CCNC(=O)COC(=O)c1cc(-c2ccco2)nc2ccccc12` the IC50 (SUMO E1/E2) was 25.3 µM (active), the IC50 [8] was 17.4 µM (active) and the IC50 [9] was 28.5 µM (active).

From ChEMBL document CHEMBL1201862, “PubChem BioAssay data set” (2004)
